The test system of test [1] is JAK1/p-STAT3(Tyr705) activated by IL-6 in TF-1 cell line. Kind of test: IL-6-JAK1/p-STAT3(Tyr705) inhibition cellular assay. Type of test: cell-based. The following applies: Homo sapiens, 0.5 h; TF-1 cells, IL-6 50 ng/ml, 30 min; read-out: Cellular assay pSTAT3/IL-6 IC50. The source says:
Assay D: IL-6-JAK1/p-STAT3(Tyr705) Inhibition IC50 Cellular Assay
To evaluate the inhibition effect of compounds disclosed herein on JAK1/p-STAT3(Tyr705) activated by IL-6 in TF-1 cell line, TF-1 cells were collected and washed 3 times by DPBS and resuspended in RPMI-1640 (phenol red free, Gibco, Cat #11835-030) with 0.1% FBS (Gibco, Cat #10099, Lot #1891605), without GM-CSF(R&D systems,Cat #215-GM-050), starved overnight. Cells were collected and resuspended in 1640 medium (phenol red free, Gibco, Cat #11835-030) with 0.1% BSA, and 12.5 μl/10×10^4/well cell suspension were seeded to the 96-well plate (Corning, Cat #3799). Then cells were treated with compounds diluted in 0.2% DMSO 1640 medium, at 37° C., 1 h. Dilution is done according to the following protocol: (1) make 500× compounds solution in DMSO from 5 mM by 4-fold dilution, total 8 doses were included; (3) make 2× compounds solution in assay medium by transferring 0.5 μl serial 500× stock solution into 125 μl assay medium; (4) 15 μl of 2× solution is added to cells and incubate at 37° C. for 1 h, the final compound conc. is 10000,2500,625,156.25,39,9.8,2.4 and 0.61 nM, respectively. After 1 h, cells were treated with 2.5 μl medium containing IL-6 at 37° C. (R&D systems, Cat #206-IL-010, final conc.50 ng/ml), 30 min. Following cells were lysed with 10 μl lysis buffer at RT, shaking on shaker for 1 h. 16 μL of cell lysate were transferred to a PE 384-well HTRF detection plate, and 4 μL of pre-mixed HTRF antibodies were added to each well. Covered the plate with a plate sealer, span 1000 rpm for 1 min, mix, Incubated overnight at room temperature. Read on BMG PheraStar with HTRF protocol (337 nm-665 nm-620 nm). IC 50 values were calculated by fitting dependent data to the four-parameter logistic model using dotmatics software. The assay was performed by using HTRF Phospho-STAT3(Tyr705) Cellular Assay Kit (Cisbio, Cat #62AT3PEG).

Test [2] deals with JAK2, TYK2/p-STAT4 (Tyr693) activated by IL-12 in NK-92 cell line. Kind of test: IL-12-JAK2, TYK2/p-STAT4 (Tyr693) inhibition cellular assay. The following applies: for IC50: NK92, 0.5 h, NK-92 cells, IL-12 40 ng/ml, 30 min, read-out: Cellular assay pSTAT4/IL-12 IC50; for Cellular assay Selectivity fold (TYK2/JAK1): pSTAT4/IL-12 vs pSTAT3/IL-6 cellular IC50. In kind it is cell-based. The source says: Assay C: IL-12-JAK2, TYK2/p-STAT4 (Tyr693) Inhibition IC50 Cellular Assay
To evaluate the inhibition effect of compounds disclosed herein on JAK2, TYK2/p-STAT4 (Tyr693) activated by IL-12 in NK-92 cell line, NK-92 cells were collected and washed 3 times by DPBS and resuspended in MEM-α(GIBCO,Cat #12561056) with 10% FBS (Gibco, Cat #10099, Lot #1891605), without IL-2 (R&D systems,Cat #202-IL), starved overnight. Cells were collected and resuspended in 1640 medium (phenol red free, Gibco, Cat #11835-030) with 0.1% BSA, and 12.5 μl/5×10^4/well cell suspension were seeded to the 96-well plate (Corning, Cat #3799). Then cells were treated with compounds diluted in 0.2% DMSO 1640 medium, at 37° C., 1 h. Dilution is done according to the following protocol: (1) make 500× compounds solution in DMSO from 5 mM by 4-fold dilution, total 8 doses were included; (3) make 2× compounds solution in assay medium by transferring 0.5 μl serial 500× stock solution into 125 μl assay medium; (4) 15 μl of 2× serial solution is added to cells and incubate at 37° C. for 1 h, the final compound conc. is 10000,2500,625,156.25,39,9.8,2.4 and 0.61 nM, respectively. After 1 h, cells were treated with 2.5 μl medium containing IL-12 at 37° C. (R&D systems, Cat #219-IL-005, final conc.40 ng/ml), 30 min. Following cells were lysed with 7.5 μl lysis buffer at RT, shaking on shaker for 1 h. 10 μL of cell lysate were transferred to a PE 384-well Proxiplate detection plate, and 5 μL of pre-mixed Alphascreen beads were added to each well. Covered the plate with a plate sealer, span 1000 rpm for 1 min, mix, Incubated overnight at room temperature. Read on BMG PheraStar with Alphascreen protocol. IC 50 values were calculated by fitting dependent data to the four-parameter logistic model using dotmatics software. The assay was performed by using AlphaLISA SureFire Ultra p-STAT4 (Tyr693) Assay Kit—High Volume (PE, Cat #ALSU-PST4-A-HV).

For test [3], the target named is T1, TYK2-JH2 (aa 575-869, in-house) protein (Homo sapiens, UniProt P29597).
T1 construct: TYK2-JH2 (aa 575-869, in-house) protein; made in house
T1 sequence (P29597 575-869): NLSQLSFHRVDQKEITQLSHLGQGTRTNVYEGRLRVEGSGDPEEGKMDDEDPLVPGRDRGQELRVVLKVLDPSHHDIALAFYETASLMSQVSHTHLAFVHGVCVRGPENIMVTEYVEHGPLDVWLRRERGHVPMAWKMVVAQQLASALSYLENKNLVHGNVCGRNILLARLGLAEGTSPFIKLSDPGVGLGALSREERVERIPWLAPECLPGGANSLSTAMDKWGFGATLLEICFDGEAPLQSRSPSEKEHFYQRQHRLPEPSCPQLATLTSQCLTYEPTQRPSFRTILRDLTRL
Kind of test: TYK2-JH2 biochemical assay (HTRF, blocking of TYK2-JH2 protein with its probe). The following applies: for IC50: HTRF, 0.2 nM recombinant TYK2-JH2, Probe 1; for Biochemical assay Selectivity fold (TYK2/JAK1): TYK2-JH2 vs JAK1-JH2 biochemical IC50. In kind it is binding. The method, then: Assay A: TYK2-JH2 Biochemical Assay
Compounds disclosed herein were tested for blocking of TYK2-JH2 (aa 575-869, in-house) protein with its probe in an assay based on Homogeneous Time Resolved Fluorescence.
Compound dilution is done according to the following protocol: (1) Prepare 500× compounds solution in DMSO from 500 uM by 5-fold dilution, total 10 doses were included; (2) Prepare 10× compounds solution in an assay buffer containing 20 mM HEPES, pH 7.5, 10 mM MgCl2, 0.005% BSA, 2 mM DTT, 0.015% Brij-35 by transferring 1 μl serial 500× stock solution into 49 μl assay buffer. 4 μl of 0.2 nM recombinant TYK2-JH2 protein was pre-incubated with 1 μl of 10×serial dilution of compounds at room temperature for 0.5 hour. Then 5 μl of 10 nM in-house Probe 1 (6-((3,5-dimethylphenyl)amino)-8-((4,26-dioxo-30-((3aS,4S,6aR)-2-oxohexahydro-1H-thieno[3,4-d]imidazol-4-yl)-7,10,13,16,19,22-hexaoxa-3,25-diazatriacontyl)amino)imidazo[1,2-b]pyridazine-3-carboxamide, KD=10 nM), 5 μl Mab Anti-6His Tb cryptate Gold (Cat: 61HI2TLB, Cisbio Bioassays) and Streptavidin-XL665(Cat: 610SAXLB, Cisobio Bioassays) mixture were added to plate and further incubated at room temperature for 1 hour. The HTRF signals (ex337 nm, em620 nm/665 nm) were read on BMG PHERAstar FS instrument. The inhibition percentage of TYK2 interaction with its probe in presence of increasing concentrations of compounds was calculated based on the ratio of fluorescence at […]. The IC50 for each compound was derived from fitting the data to the four-parameter logistic equation by Dotmatics.
For orientation: In TR-FRET formats the signal depends on donor and acceptor labels being close together.

For test [4], the target named is T2, JAK1-JH2 protein (aa 561-860, in-house) (Homo sapiens, UniProt P23458).
T2 construct: JAK1-JH2 protein (aa 561-860, in-house); made in house
T2 sequence (P23458 561-860): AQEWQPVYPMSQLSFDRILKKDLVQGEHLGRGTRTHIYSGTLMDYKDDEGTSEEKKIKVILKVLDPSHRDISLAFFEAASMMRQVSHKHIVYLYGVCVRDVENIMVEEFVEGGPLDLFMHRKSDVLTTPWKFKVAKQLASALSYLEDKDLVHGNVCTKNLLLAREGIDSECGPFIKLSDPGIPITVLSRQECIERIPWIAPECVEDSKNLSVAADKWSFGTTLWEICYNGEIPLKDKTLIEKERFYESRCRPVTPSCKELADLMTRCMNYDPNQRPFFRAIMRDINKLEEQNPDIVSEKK
Kind of test: JAK1-JH2 biochemical assay (HTRF, blocking of JAK1-JH2 protein with its probe). In kind it is binding. Particulars: 1.17 nM recombinant JAK1-JH2, Probe 2. The procedure:
Assay B: JAK1-JH2 Biochemical Assay
Compounds disclosed herein were tested for blocking of JAK1-JH2 protein (aa 561-860, in-house) with its probe in an assay based on Homogeneous Time Resolved Fluorescence. Compound dilution is done according to the following protocol: (1) Prepare 500× compounds solution in DMSO from 500 uM by 5-fold dilution, total 10 doses were included; (2) Prepare 10× compounds solution in an assay buffer containing 20 mM HEPES, pH 7.5, 10 mM MgCl2, 0.005% BSA, 2 mM DTT, 0.015% Brij-35 by transferring 1 μl serial 500× stock solution into 49 μl assay buffer. 4 μL of 1.17 nM recombinant JAK1-JH2 protein was pre-incubated with 1 μl of 10×serial dilution of compounds at room temperature for 0.5 hour. […] The HTRF signals (ex337 nm, em620 nm/665 nm) were read on BMG PHERAstar FS instrument. The inhibition percentage of JAK1 interaction with its probe in presence of increasing concentrations of compounds was calculated based on the ratio of fluorescence at 615 nm to that at 665 nm. The IC50 for each compound was derived from fitting the data to the four-parameter logistic equation by Dotmatics.

Turning to `CNC(=O)c1nnc(NC(=O)C2CC2)cc1Nc1nc2ccc(N3CC(N4CCCCC4)C3)cn2n1` [Example E14, 6-(cyclopropanecar-boxamido)-N-methyl-4-((6-(3-(piperidin-1-yl)azetidin-1-yl)-[1,2,4]triazolo [1,5-a]pyridin-2-yl)amino) pyridazine-3-carboxamide], the IC50 in test [1] is more than 10000 nM; in test [2], 42.6 nM; in test [3], 0.11 nM; in test [4], 1.8 nM. For the same compound, the “Cellular assay Selectivity fold (TYK2/JAK1)” value in test [2] is recorded as more than 234 fold. Further, the “Biochemical assay Selectivity fold (TYK2/JAK1)” value in test [3] is given as 16 fold.
In the case of `CNC(=O)c1nnc(NC(=O)C2CC2)cc1Nc1nc2ccc(N3CC(S(C)(=O)=O)C3)cn2n1` [Example E18, 6-(cyclopropanecar-boxamido)-N-methyl-4-((6-(3-(methyl-sulfonyl)azetidin-1-yl)-[1,2,4]triazolo [1,5-a]pyridin-2-yl)amino)pyridazine-3-carboxamide], the IC50 was more than 10000 nM in test [1], 645 nM in test [2], 0.12 nM in test [3] and 1.5 nM in test [4]. Also, the “Cellular assay Selectivity fold (TYK2/JAK1)” value in test [2] is on record as more than 15.5 fold. The “Biochemical assay Selectivity fold (TYK2/JAK1)” value in test [3] stood at 13 fold.
Regarding `CNC(=O)c1nnc(NC(=O)C2CC2)cc1Nc1nc2ccc(N3CC(N(C)C)C3)cn2n1` [Example E5, 6-(cyclopropanecar-boxamido)-4-((6-(3-(dimethylamino)azetidin-1-yl)-[1,2,4]triazolo [1,5-a]pyridin-2-yl)amino)-N-methylpyridazine-3-carboxamide], the IC50 in test [1] was found to be 7270 nM; in test [2] it was 16 nM; in test [3], 0.064 nM; in test [4] it was 1.7 nM. Besides, the “Cellular assay Selectivity fold (TYK2/JAK1)” value in test [2] was 454 fold. Besides, in test [3], the “Biochemical assay Selectivity fold (TYK2/JAK1)” value is reported as 26 fold.
As to `CNC(=O)c1nnc(NC(=O)C2CC2)cc1Nc1nc2ccc(N3CC(Oc4ccc(F)cc4F)C3)cn2n1` [Example E19, 6-(cyclopropanecar-boxamido)-4-((6-(3-(2,4-difluorophenoxy)azetidin-1-yl)-[1,2,4]triazolo[1,5-a]pyridin-2-yl)amino)-N-methylpyridazine-3-carboxamide], the IC50 in test [1] is more than 10000 nM; in test [2] it was 105 nM; in test [3] it was 0.14 nM; in test [4] it was 8.4 nM. In test [2], the “Cellular assay Selectivity fold (TYK2/JAK1)” value is on record as more than 95 fold. The “Biochemical assay Selectivity fold (TYK2/JAK1)” value in test [3] is recorded as 60 fold.
Regarding `CCN(CC)C1CN(c2ccc3nc(Nc4cc(NC(=O)C5CC5)nnc4C(=O)NC)nn3c2)C1` [Example E22, 6-(cyclopropanecar-boxamido)-4-((6-(3-(diethylamino)azetidin-1-yl)-[1,2,4]triazolo [1,5-a]pyridin-2-yl)amino)-N-methylpyridazine-3-carboxamide], the IC50 in test [1] is 5120 nM; in test [2] it was 37.2 nM; in test [3], 0.093 nM; in test [4], 1.03 nM. For the same compound, the “Cellular assay Selectivity fold (TYK2/JAK1)” value in test [2] is recorded as 138 fold. Moreover, in test [3], the “Biochemical assay Selectivity fold (TYK2/JAK1)” value is 11 fold.
On to `CNC(=O)c1nnc(NC(=O)C2CC2)cc1Nc1nc2ccc(N3CCC(N4CC(F)(F)C4)CC3)cn2n1` [Example E12, 6-(cyclopropanecar-boxamido)-4-((6-(4-(3,3-difluoroazetidin-1-yl)piperidin-1-yl)-[1,2,4]triazolo[1,5-a]pyridin-2-yl)amino)-N-methylpyridazine-3-carboxamide], for which the IC50 in test [1] stood at 9930 nM; in test [2], 6.31 nM; in test [3], 0.024 nM; in test [4] it was 1.7 nM. For the same compound, the “Cellular assay Selectivity fold (TYK2/JAK1)” value in test [2] worked out at 1478 fold. Also, the “Biochemical assay Selectivity fold (TYK2/JAK1)” value in test [3] was determined as 71 fold.
As for `CNC(=O)c1nnc(NC(=O)C2CC2)cc1Nc1nc2ccc(P(C)(C)=O)cn2n1` [Example A5, 6-(cyclopropanecarboxamido)-4-((6-(dimethylphosphoryl)-[1,2,4]triazolo[1,5-a]pyridin-2-yl)amino)-N-methyl-pyridazine-3-carboxamide], the IC50 was more than 10000 nM in test [1], more than 10000 nM in test [2], 0.56 nM in test [3] and 13 nM in test [4]. For the same compound, the “Biochemical assay Selectivity fold (TYK2/JAK1)” value in test [3] was determined as 23 fold.
